{"source": "patent US9255090B2", "about": "“Heterocyclyl derivatives and their use as prostaglandin D2 receptor modulators” (Actelion Pharmaceuticals Ltd., priority 2012, dated 2016)", "molecular_target": "hCRTH2 receptor (Homo sapiens (Human), UniProt Q9Y5Y4)", "sequence (Q9Y5Y4 whole entry)": "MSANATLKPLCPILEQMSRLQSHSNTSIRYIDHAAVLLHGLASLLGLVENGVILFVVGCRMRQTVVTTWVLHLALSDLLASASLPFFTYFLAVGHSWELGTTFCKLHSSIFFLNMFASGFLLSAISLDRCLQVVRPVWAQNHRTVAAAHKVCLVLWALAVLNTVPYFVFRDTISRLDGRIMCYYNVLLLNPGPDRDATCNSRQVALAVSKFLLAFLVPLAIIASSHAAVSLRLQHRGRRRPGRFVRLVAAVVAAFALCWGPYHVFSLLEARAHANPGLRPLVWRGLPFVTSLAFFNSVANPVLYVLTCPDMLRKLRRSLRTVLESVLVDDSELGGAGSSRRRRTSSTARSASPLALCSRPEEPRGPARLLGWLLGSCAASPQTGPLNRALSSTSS", "assay": "hCRTH2 receptor membranes radioligand (3H-PGD2) displacement assay", "assay_type": "binding", "conditions": "3H-PGD2 radioligand displacement, HEK293-hCRTH2 membranes", "summary_of_the_method": "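HEK293-hCRTH2 membranes, 20 μg/well; 3H-PGD2 added at 2.5 nM; binding buffer 50 mM Tris, 10 mM MnCl2, 1 mM EDTA, pH 7.0; 90 min RT; GF/C filtration, scintillation count. Nonspecific binding: PGD2 at […].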", "data": [{"smiles": "CCOc1cc(CC(=O)O)ccc1-c1ccc(F)c2c1CN(C(=O)/C=C/c1ccccn1)CC2", "note": "[Example 338, {3-Ethoxy-4-[5-fluoro-2-((E)-3-pyridin-2-yl-acryloyl)-1,2,3,4-tetrahydro-isoquinolin-8-yl]-phenyl}-acetic acid]", "values": [{"measurement": "IC50", "value": 2.3, "unit": "nM"}]}, {"smiles": "CCOc1cc(CC(=O)O)ccc1-c1ccc(F)c2c1CN(C(=O)/C=C/c1cnn(C)c1)CC2", "note": "[Example 339, (3-Ethoxy-4-{5-fluoro-2-[(E)-3-(1-methyl-1H-pyrazol-4-yl)-acryloyl]-1,2,3,4-tetrahydro-isoquinolin-8-yl}-phenyl)-acetic acid]", "values": [{"measurement": "IC50", "value": 12.7, "unit": "nM"}]}, {"smiles": "CCOc1ccc(CC(=O)O)cc1-c1ccc(F)c2c1CN(C(=O)Cc1ccccn1)CC2", "note": "[Example 340, {4-Ethoxy-3-[5-fluoro-2-(2-pyridin-2-yl-acetyl)-1,2,3,4-tetrahydro-isoquinolin-8-yl]-phenyl}-acetic acid]", "values": [{"measurement": "IC50", "value": 897, "unit": "nM"}]}, {"smiles": "CCOc1ccc(CC(=O)O)cc1-c1ccc(F)c2c1CN(C(=O)/C=C/c1cnn(C)c1)CC2", "note": "[Example 341, (4-Ethoxy-3-{5-fluoro-2-[(E)-3-(1-methyl-1H-pyrazol-4-yl)-acryloyl]-1,2,3,4-tetrahydro-isoquinolin-8-yl}-phenyl)-acetic acid]", "values": [{"measurement": "IC50", "value": 5.8, "unit": "nM"}]}, {"smiles": "CCOc1cc(CC(=O)O)ccc1-c1ccc(F)c2c1CN(C(=O)Cc1ccccn1)CC2", "note": "[Example 342, {3-Ethoxy-4-[5-fluoro-2-(2-pyridin-2-yl-acetyl)-1,2,3,4-tetrahydro-isoquinolin-8-yl]-phenyl}-acetic acid]", "values": [{"measurement": "IC50", "value": 150, "unit": "nM"}]}, {"smiles": "C[C@H](CC(=O)N1CCc2c(F)ccc(-c3ccc(CC(=O)O)cc3OCC(F)(F)F)c2C1)c1ccccc1", "note": "[Example 347, [4-[5-Fluoro-2-((R)-3-phenyl-butyryl)-1,2,3,4-tetrahydro-isoquinolin-8-yl]-3-(2,2,2-trifluoro-ethoxy)-phenyl]-acetic acid]", "values": [{"measurement": "IC50", "value": 1.5, "unit": "nM"}]}, {"smiles": "CCOc1cc(CC(=O)O)ccc1-c1ccc(F)c2c1CN(C(=O)CCc1ccccn1)CC2", "note": "[Example 349, {3-Ethoxy-4-[5-fluoro-2-(3-pyridin-2-yl-propionyl)-1,2,3,4-tetrahydro-isoquinolin-8-yl]-phenyl}-acetic acid]", "values": [{"measurement": "IC50", "value": 0.5, "unit": "nM"}]}, {"smiles": "CC(C)Oc1cc(CC(=O)O)ccc1-c1ccc(F)c2c1CN(C(=O)CC(C)(C)c1ccccc1)CC2", "note": "[Example 354, {4-[5-Fluoro-2-(3-methyl-3-phenyl-butyryl)-1,2,3,4-tetrahydro-isoquinolin-8-yl]-3-isopropoxy-phenyl}-acetic acid]", "values": [{"measurement": "IC50", "value": 4.2, "unit": "nM"}]}, {"smiles": "CC(C)Oc1cc(CC(=O)O)ccc1-c1ccc(F)c2c1CN(C(=O)C[C@H](C)c1ccccc1)CC2", "note": "[Example 355, {4-[5-Fluoro-2-((S)-3-phenyl-butyryl)-1,2,3,4-tetrahydro-isoquinolin-8-yl]-3-isopropoxy-phenyl}-acetic acid]", "values": [{"measurement": "IC50", "value": 10.3, "unit": "nM"}]}, {"smiles": "CC(C)Oc1cc(CC(=O)O)ccc1-c1ccc(F)c2c1CN(C(=O)C[C@@H](C)c1ccccc1)CC2", "note": "[Example 356, {4-[5-Fluoro-2-((R)-3-phenyl-butyryl)-1,2,3,4-tetrahydro-isoquinolin-8-yl]-3-isopropoxy-phenyl}-acetic acid]", "values": [{"measurement": "IC50", "value": 2.1, "unit": "nM"}]}, {"smiles": "CC(C)Oc1cc(CC(=O)O)ccc1-c1ccc(F)c2c1CN(C(=O)[C@@H]1C[C@H]1c1ccccc1)CC2", "note": "[Example 357, {4-[5-Fluoro-2-((1R,2R)-2-phenyl-cyclopropanecarbonyl)-1,2,3,4-tetrahydro-isoquinolin-8-yl]-3-isopropoxy-phenyl}-acetic acid]", "values": [{"measurement": "IC50", "value": 1.6, "unit": "nM"}]}, {"smiles": "CCOc1ccc(CC(=O)O)cc1-c1ccc(F)c2c1CN(C(=O)O[C@H](C)c1ccccc1)CC2", "note": "[Example 364, 8-(5-Carboxymethyl-2-ethoxy-phenyl)-5-fluoro-3,4-dihydro-1H-isoquinoline-2-carboxylic acid (R)-1-phenyl-ethyl ester]", "values": [{"measurement": "IC50", "value": 6, "unit": "nM"}]}, {"smiles": "CCOc1ccc(CC(=O)O)cc1-c1ccc(F)c2c1CN(C(=O)OCc1ccnn1C)CC2", "note": "[Example 367, 8-(5-Carboxymethyl-2-ethoxy-phenyl)-5-fluoro-3,4-dihydro-1H-isoquinoline-2-carboxylic acid 2-methyl-2H-pyrazol-3-ylmethyl ester]", "values": [{"measurement": "IC50", "value": 8.8, "unit": "nM"}]}, {"smiles": "CCOc1ccc(CC(=O)O)cc1-c1ccc(F)c2c1CN(C(=O)OCC=C(C)C)CC2", "note": "[Example 375, 8-(5-Carboxymethyl-2-ethoxy-phenyl)-5-fluoro-3,4-dihydro-1H-isoquinoline-2-carboxylic acid 3-methyl-but-2-enyl ester]", "values": [{"measurement": "IC50", "value": 8.7, "unit": "nM"}]}, {"smiles": "CCOc1ccc(CC(=O)O)cc1-c1ccc(F)c2c1CN(C(=O)OCCOC)CC2", "note": "[Example 378, 8-(5-Carboxymethyl-2-ethoxy-phenyl)-5-fluoro-3,4-dihydro-1H-isoquinoline-2-carboxylic acid 2-methoxy-ethyl ester]", "values": [{"measurement": "IC50", "value": 5.9, "unit": "nM"}]}, {"smiles": "C=C(C)CCOC(=O)N1CCc2c(F)ccc(-c3cc(CC(=O)O)ccc3OCC)c2C1", "note": "[Example 379, 8-(5-Carboxymethyl-2-ethoxy-phenyl)-5-fluoro-3,4-dihydro-1H-isoquinoline-2-carboxylic acid 3-methyl-but-3-enyl ester]", "values": [{"measurement": "IC50", "value": 2.5, "unit": "nM"}]}, {"smiles": "C#CCCOC(=O)N1CCc2c(F)ccc(-c3cc(CC(=O)O)ccc3OCC)c2C1", "note": "[Example 381, 8-(5-Carboxymethyl-2-ethoxy-phenyl)-5-fluoro-3,4-dihydro-1H-isoquinoline-2-carboxylic acid but-3-ynyl ester]", "values": [{"measurement": "IC50", "value": 28.8, "unit": "nM"}]}, {"smiles": "CCOc1ccc(CC(=O)O)cc1-c1ccc(F)c2c1CN(C(=O)OCCC(C)(C)O)CC2", "note": "[Example 382, 8-(5-Carboxymethyl-2-ethoxy-phenyl)-5-fluoro-3,4-dihydro-1H-isoquinoline-2-carboxylic acid 3-hydroxy-3-methyl-butyl ester]", "values": [{"measurement": "IC50", "value": 14, "unit": "nM"}]}, {"smiles": "CCOc1ccc(CC(=O)O)cc1-c1ccc(F)c2c1CN(C(=O)OCCC(C)(C)OC)CC2", "note": "[Example 383, 8-(5-Carboxymethyl-2-ethoxy-phenyl)-5-fluoro-3,4-dihydro-1H-isoquinoline-2-carboxylic acid 3-methoxy-3-methyl-butyl ester]", "values": [{"measurement": "IC50", "value": 19, "unit": "nM"}]}, {"smiles": "CCOc1cc(CC(=O)O)ccc1-c1ccc(F)c2c1CN(C(=O)O[C@H](C)c1ccccc1)CC2", "note": "[Example 385, 8-(4-Carboxymethyl-2-ethoxy-phenyl)-5-fluoro-3,4-dihydro-1H-isoquinoline-2-carboxylic acid (R)-1-phenyl-ethyl ester]", "values": [{"measurement": "IC50", "value": 35.8, "unit": "nM"}]}, {"smiles": "CCOc1cc(CC(=O)O)ccc1-c1ccc(F)c2c1CN(C(=O)OCc1cnccn1)CC2", "note": "[Example 386, 8-(4-Carboxymethyl-2-ethoxy-phenyl)-5-fluoro-3,4-dihydro-1H-isoquinoline-2-carboxylic acid pyrazin-2-ylmethyl ester]", "values": [{"measurement": "IC50", "value": 3.4, "unit": "nM"}]}, {"smiles": "CCOc1cc(CC(=O)O)ccc1-c1ccc(F)c2c1CN(C(=O)OCc1ncc(C)cc1F)CC2", "note": "[Example 387, 8-(4-Carboxymethyl-2-ethoxy-phenyl)-5-fluoro-3,4-dihydro-1H-isoquinoline-2-carboxylic acid 3-fluoro-5-methyl-pyridin-2-ylmethyl ester]", "values": [{"measurement": "IC50", "value": 8, "unit": "nM"}]}, {"smiles": "CCOc1cc(CC(=O)O)ccc1-c1ccc(F)c2c1CN(C(=O)OCc1ccnn1C)CC2", "note": "[Example 388, 8-(4-Carboxymethyl-2-ethoxy-phenyl)-5-fluoro-3,4-dihydro-1H-isoquinoline-2-carboxylic acid 2-methyl-2H-pyrazol-3-ylmethyl ester]", "values": [{"measurement": "IC50", "value": 3.8, "unit": "nM"}]}, {"smiles": "CCOc1cc(CC(=O)O)ccc1-c1ccc(F)c2c1CN(C(=O)OCc1cccc(C)n1)CC2", "note": "[Example 390, 8-(4-Carboxymethyl-2-ethoxy-phenyl)-5-fluoro-3,4-dihydro-1H-isoquinoline-2-carboxylic acid 6-methyl-pyridin-2-ylmethyl ester]", "values": [{"measurement": "IC50", "value": 0.8, "unit": "nM"}]}, {"smiles": "CCOc1cc(CC(=O)O)ccc1-c1ccc(F)c2c1CN(C(=O)OCC1CC1)CC2", "note": "[Example 391, 8-(4-Carboxymethyl-2-ethoxy-phenyl)-5-fluoro-3,4-dihydro-1H-isoquinoline-2-carboxylic acid cyclopropylmethyl ester]", "values": [{"measurement": "IC50", "value": 1.6, "unit": "nM"}]}, {"smiles": "CCOc1cc(CC(=O)O)ccc1-c1ccc(F)c2c1CN(C(=O)OCC1CCCC1)CC2", "note": "[Example 392, 8-(4-Carboxymethyl-2-ethoxy-phenyl)-5-fluoro-3,4-dihydro-1H-isoquinoline-2-carboxylic acid cyclopentylmethyl ester]", "values": [{"measurement": "IC50", "value": 5.9, "unit": "nM"}]}, {"smiles": "CCOc1cc(CC(=O)O)ccc1-c1ccc(F)c2c1CN(C(=O)OCCC(C)C)CC2", "note": "[Example 393, 8-(4-Carboxymethyl-2-ethoxy-phenyl)-5-fluoro-3,4-dihydro-1H-isoquinoline-2-carboxylic acid 3-methyl-butyl ester]", "values": [{"measurement": "IC50", "value": 49.4, "unit": "nM"}]}, {"smiles": "CCOc1cc(CC(=O)O)ccc1-c1ccc(F)c2c1CN(C(=O)OCc1ccccn1)CC2", "note": "[Example 395, 8-(4-Carboxymethyl-2-ethoxy-phenyl)-5-fluoro-3,4-dihydro-1H-isoquinoline-2-carboxylic acid pyridin-2-ylmethyl ester]", "values": [{"measurement": "IC50", "value": 3.7, "unit": "nM"}]}, {"smiles": "O=C(O)Cc1ccc(Cl)cc1-c1ccc(F)c2c1CN(C(=O)OCc1ccccc1)CC2", "note": "[Example 416, 8-(2-Carboxymethyl-5-chloro-phenyl)-5-fluoro-3,4-dihydro-1H-isoquinoline-2-carboxylic acid benzyl ester]", "values": [{"measurement": "IC50", "value": 575, "unit": "nM"}]}, {"smiles": "COc1cccc(OCC(=O)O)c1-c1ccc(F)c2c1CN(C(=O)OCc1ccccc1)CC2", "note": "[Example 417, 8-(2-Carboxymethoxy-6-methoxy-phenyl)-5-fluoro-3,4-dihydro-1H-isoquinoline-2-carboxylic acid benzyl ester]", "values": [{"measurement": "IC50", "value": 23.5, "unit": "nM"}]}, {"smiles": "COc1cccc(CC(=O)O)c1-c1ccc(F)c2c1CN(C(=O)OCc1ccccc1)CC2", "note": "[Example 418, 8-(2-Carboxymethyl-6-methoxy-phenyl)-5-fluoro-3,4-dihydro-1H-isoquinoline-2-carboxylic acid benzyl ester]", "values": [{"measurement": "IC50", "value": 352, "unit": "nM"}]}, {"smiles": "COc1c(CC(=O)O)cccc1-c1ccc(F)c2c1CN(C(=O)OCc1ccccc1)CC2", "note": "[Example 423, 8-(3-Carboxymethyl-2-methoxy-phenyl)-5-fluoro-3,4-dihydro-1H-isoquinoline-2-carboxylic acid benzyl ester]", "values": [{"measurement": "IC50", "value": 180, "unit": "nM"}]}]}
